From US20260285850A1, “SUBSTITUTED OXAZOLIDINONES AND IMIDAZOLINONES AS HERBICIDES” (FMC CORPORATION, priority 2023, published 2026)

How the values were obtained:
Type in all cases: in vivo
[1] = system: barnyardgrass (Echinochloa crus-galli); experiment: Test A preemergence soil spray, visual injury rating 0-100; details: 10 days, 0 = no effect, 100 = complete control
In short: (§1)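 Grow plants in loam soil blended with sand. Apply formulated compound (non-phytotoxic solvent, surfactant) as a directed soil spray before emergence, or to plants at the one- to two-leaf stage after emergence. Hold in greenhouse 10 days, then rate injury visually versus untreated controls on a 0-100 scale.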

[2] = system: blackgrass (Alopecurus myosuroides); experiment: as above; details: 10 days, 0 = no effect, 100 = complete control
In short: as §1

corn (Zea mays) [3] = experiment: as above; details: 10 days, 0 = no effect, 100 = complete control
In short: as §1

[4] = system: green foxtail (Setaria viridis); experiment: as above; details: 10 days, 0 = no effect, 100 = complete control
In short: as §1

kochia (Bassia scoparia) [5] = experiment: as above; details: 10 days, 0 = no effect, 100 = complete control
In short: as §1

[6] = system: oat, wild (wild oat, Avena fatua); experiment: as above; details: 10 days, 0 = no effect, 100 = complete control
In short: as §1

[7] = system: palmer (palmer amaranth, palmer pigweed, Amaranthus palmeri); experiment: as above; details: 10 days, 0 = no effect, 100 = complete control
In short: as §1

[8] = system: ragweed (common ragweed, Ambrosia artemisiifolia); experiment: as above; details: 10 days, 0 = no effect, 100 = complete control
In short: as §1

[9] = system: ryegrass, Italian (italian ryegrass, Lolium multiflorum); experiment: as above; details: 10 days, 0 = no effect, 100 = complete control
In short: as §1

soybean (Glycine max) [10] = experiment: as above; details: 10 days, 0 = no effect, 100 = complete control
In short: as §1

[11] = system: wheat (Triticum aestivum); experiment: as above; details: 10 days, 0 = no effect, 100 = complete control
In short: as §1

[12] = system: barnyardgrass (Echinochloa crus-galli); experiment: Test A postemergence application, visual injury rating 0-100; details: 10 days
In short: as §1

[13] = system: blackgrass (Alopecurus myosuroides); experiment: as above; details: 10 days
In short: as §1

corn (Zea mays) [14] = experiment: as above; details: 10 days
In short: as §1

[15] = system: galium (catchweed bedstraw, Galium aparine); experiment: as above; details: 10 days
In short: as §1

[16] = system: green foxtail (Setaria viridis); experiment: as above; details: 10 days
In short: as §1

[17] = system: horseweed (Erigeron canadensis); experiment: as above; details: 10 days
In short: as §1

kochia (Bassia scoparia) [18] = experiment: as above; details: 10 days
In short: as §1

[19] = system: oat, wild (wild oat, Avena fatua); experiment: as above; details: 10 days
In short: as §1

[20] = system: palmer (palmer amaranth, palmer pigweed, Amaranthus palmeri); experiment: as above; details: 10 days
In short: as §1

[21] = system: ragweed (common ragweed, Ambrosia artemisiifolia); experiment: as above; details: 10 days
In short: as §1

[22] = system: ryegrass, Italian (italian ryegrass, Lolium multiflorum); experiment: as above; details: 10 days
In short: as §1

soybean (Glycine max) [23] = experiment: as above; details: 10 days
In short: as §1

[24] = system: wheat (Triticum aestivum); experiment: as above; details: 10 days
In short: as §1

[25] = system: barnyardgrass (Echinochloa crusgalli); experiment: Test B flooded paddy test, visual plant response rating 0-100; details: 250 g ai/ha, Flood, applied to paddy water, evaluated after 13 days
In short: (§2)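 Visual evaluation after 13 days. Water-applied treatment, 3 cm flood depth held constant, plants at 2-leaf stage at treatment.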

[26] = system: ducksalad (Heteranthera limosa); experiment: as above; details: 250 g ai/ha, Flood, applied to paddy water, evaluated after 13 days
In short: as §2

rice (Oryza sativa) = experiment: as above; details: 250 g ai/ha, Flood, applied to paddy water, evaluated after 13 days
In short: as §2

[27] = system: sedge, umbrella (small-flower umbrella sedge, Cyperus difformis); experiment: as above; details: 250 g ai/ha, Flood, applied to paddy water, evaluated after 13 days
In short: as §2

[28] = 31 g ai/ha, postemergence, 0 = no effect, 100 = complete control
[29] = Postemergence, 125 g ai/ha, 0 is no effect, 100 is complete control

CC1(C(=O)NC2CC=C(C(=O)OCC(F)(F)F)C2)CN(c2cc(F)cc(F)c2)C(=O)O1 (stereo not shown) [Compound 1]
Barnyardgrass plant response rating (0-100) ([1]; 31 g ai/ha): 90
Barnyardgrass plant response rating (0 to 100 scale) ([1]; 125 g ai/ha): 100
Blackgrass plant response rating (0-100) ([2]; 31 g ai/ha): 60
Blackgrass plant response rating (0 to 100 scale) ([2]; 125 g ai/ha): 70
Corn plant response rating (0-100) (corn (Zea mays) [3]; 31 g ai/ha): 60
Corn plant response rating (0 to 100 scale) (corn (Zea mays) [3]; 125 g ai/ha): 90
Foxtail, Green plant response rating (0-100) ([4]; 31 g ai/ha): 100
Foxtail, Green plant response rating (0 to 100 scale) ([4]; 125 g ai/ha): 100
Kochia plant response rating (0-100) (kochia (Bassia scoparia) [5]; 31 g ai/ha): 50
Kochia plant response rating (0 to 100 scale) (kochia (Bassia scoparia) [5]; 125 g ai/ha): 100
Oat, Wild plant response rating (0-100) ([6]; 31 g ai/ha): 60
Oat, Wild plant response rating (0 to 100 scale) ([6]; 125 g ai/ha): 80
Amaranth, Palmer plant response rating (0-100) ([7]; 31 g ai/ha): 90
Amaranth, Palmer plant response rating (0 to 100 scale) ([7]; 125 g ai/ha): 100
Ragweed plant response rating (0-100) ([8]; 31 g ai/ha): 20
Ragweed plant response rating (0 to 100 scale) ([8]; 125 g ai/ha): 90
Ryegrass, Italian plant response rating (0-100) ([9]; 31 g ai/ha): 80
Ryegrass, Italian plant response rating (0 to 100 scale) ([9]; 125 g ai/ha): 90
Soybean plant response rating (0-100) (soybean (Glycine max) [10]; 31 g ai/ha): 70
Soybean plant response rating (0 to 100 scale) (soybean (Glycine max) [10]; 125 g ai/ha): 90
Wheat plant response rating (0-100) ([11]; 31 g ai/ha): 90
Wheat plant response rating (0 to 100 scale) ([11]; 125 g ai/ha): 100
Barnyardgrass plant response rating (0-100) [12, 28]: 100
Barnyardgrass plant response rating (0 to 100 scale) [12, 29]: 100
Blackgrass plant response rating (0-100) [13, 28]: 90
Blackgrass plant response rating (0 to 100 scale) [13, 29]: 100
Corn plant response rating (0-100) (corn (Zea mays) [14]; [28]): 100
Corn plant response rating (0 to 100 scale) (corn (Zea mays) [14]; [29]): 100
Galium plant response rating (0-100) [15, 28]: 90
Galium plant response rating (0 to 100 scale) [15, 29]: 90
Foxtail, Green plant response rating (0-100) [16, 28]: 90
Foxtail, Green plant response rating (0 to 100 scale) [16, 29]: 90
Horseweed plant response rating (0-100) [17, 28]: 70
Horseweed plant response rating (0 to 100 scale) [17, 29]: 80
Kochia plant response rating (0-100) (kochia (Bassia scoparia) [18]; [28]): 70
Kochia plant response rating (0 to 100 scale) (kochia (Bassia scoparia) [18]; [29]): 90
Oat, Wild plant response rating (0-100) [19, 28]: 90
Oat, Wild plant response rating (0 to 100 scale) [19, 29]: 100
Amaranth, Palmer plant response rating (0-100) [20, 28]: 90
Amaranth, Palmer / Pigweed, Palmer plant response rating (0 to 100 scale) [20, 29]: 90
Ragweed plant response rating (0-100) [21, 28]: 60
Ragweed plant response rating (0 to 100 scale) [21, 29]: 70
Ryegrass, Italian plant response rating (0-100) [22, 28]: 80
Ryegrass, Italian plant response rating (0 to 100 scale) [22, 29]: 80
Soybean plant response rating (0-100) (soybean (Glycine max) [23]; [28]): 80
Soybean plant response rating (0 to 100 scale) (soybean (Glycine max) [23]; [29]): 90
Wheat plant response rating (0-100) [24, 28]: 90
Wheat plant response rating (0 to 100 scale) [24, 29]: 90
Plant response rating, Barnyardgrass (0 to 100 scale, 0 is no effect and 100 is complete control) [25]: 95
Plant response rating, Ducksalad (0 to 100 scale, 0 is no effect and 100 is complete control) [26]: 60
Plant response rating, Rice (0 to 100 scale, 0 is no effect and 100 is complete control) (rice (Oryza sativa)): 80
Plant response rating, Sedge, Umbrella (0 to 100 scale, 0 is no effect and 100 is complete control) [27]: 95
